Measured values reported in patent US10787696B2 (priority 2009, dated 2020).

Tests used:
Type in all cases: cell-based
[1] = tested on: synthetic promoter G5TO4 (tetracycline transcription silencer tTS)
[2] = tested on: synthetic promoter G5TO4 (tetracycline transcription silencer tTS); details: clone #32, 1 μg/ml tetracycline
[3] = tested on: synthetic promoter G5TO4 (tetracycline transcription silencer tTS); details: 1 μg/ml tetracycline; culture medium two days post-transfection; HeLa-tTS

For `CN(C)[C@@H]1C(O)=C(C(N)=O)C(=O)[C@@]2(O)C(O)=C3C(=O)c4c(O)cccc4[C@@](C)(O)[C@H]3C[C@@H]12` [tetracycline], which “reporter activation by the addition of tetracycline” value [1] is on record?
Its value is “more than 14 fold”.

What about the “reporter gene activation when tetracycline was added to the culture medium” value [2] of the same compound?
The value was “more than 200 fold”.

And the “luciferase activity in medium of cells treated with tetracycline vs. not treated” value ([2]; 96-well microplate, one day)?
Its value is 200 fold.

And the “relative light units (RLU) with tetracycline vs. absence of tetracycline” value [3]?
The value was 16 fold.
